Tests used:
[1] = system: ovalbumin-specific CD4+ T cells; experiment: In vivo clonal expansion of ovalbumin-specific CD4+ T cells after PMID immunisation (adoptive transfer model, flow cytometry KJ1+ CD4+); parameters: species or system mice
Protocol: (§1) Twenty four hours later, minipumps containing 1400W (delivering 10 mg/kg per hour), or sterile water (controls), were implanted subcutaneously into mice under anaesthesia. Mice were then immediately immunised by PMID with two cartridges of either pVAC1.0VA or empty vector (1 μg plasmid DNA/mouse).
(§2) Five days later, mice were killed by cervical dislocation and inguinal and periaortic lymph nodes were collected and prepared as for splenocytes (described above), except that the red blood cell lysis step was omitted. To measure the in vivo clonal expansion of CD4+ T cells induced by immunisation, the proportion of ovalbumin-specific T cells was assessed ex vivo in the lymph node cell preparations. Briefly, an aliquot of lymph node cells from each individual mouse was processed for flow cytometry analysis (Coulter XL) using KJ1.26 (0.2 μg, Caltag) and anti-CD4 (0.5 μg, Sigma).

IL-4 producing cells = experiment: ELISPOT of IL-4 (Th2) producing CD4+ T cells from lymph nodes; type: in vivo, mice; details: combination of 1400W with pVAC1.OVA vs pVAC1.OVA + vehicle; FIG. 2
Protocol: as §1, §2
(§3) Th CD4+ subsets were assessed by ELISPOT analyses of CD4+ T cells producing IFN-γ (Th1) and IL-4 (Th2). Briefly, lymph node cell suspension was aliquoted into ELISPOT plates previously coated with capture IFN-γ or IL-4 antibody and stimulated with ovalbumin cognate peptide.

IFN-γ producing cells = experiment: ELISPOT of IFN-γ (Th1) producing CD4+ T cells from lymph nodes; type: in vivo, mice; details: combination pVAC1.OVA + 1400W; FIG. 3
Protocol: as §1, §2, §3

CD8+ T cells = experiment: CD8+ T cell-restricted IFN-γ / IL-2 ELISPOT assay of splenocytes after prime-boost PMID; type: in vivo, C57B1/6 mice
Protocol: Controls contained pVAC1 (0.5 μg plasmid DNA/cartridge) only.
Spleens were collected 12 days later for T cell assays.
The cytotoxic T cell response was assessed by CD8+ T cell-restricted IFN-γ ELISPOT assay of splenocytes. Mice were killed by cervical dislocation and spleens were collected into ice-cold PBS. […] After two washes in PBS to remove particulate matter the single cell suspension was aliquoted into ELISPOT plates previously coated with capture IFN-γ or IL-2 antibody and stimulated with CD8-restricted cognate peptide. After overnight culture, IFN-γ producing cells were visualised by application of anti-murine IFN-γ-biotin labelled antibody (Pharmingen) followed by streptavidin-conjugated alkaline phosphatase and quantitated using image analysis.

iNOS = iNOS (Homo sapiens, UniProt P35228); details: category per Alderton et al., Biochem J. (2001) 357, 593-615; cited from earlier work

Structure (SMILES)	clonal expansion of CD4+ T cells ([1]; empty vector + 1400W vs empty vector + vehicle)	clonal expansion of CD4+ T cells ([1]; pVAC1.OVA + 1400W (minipump, 10 mg/kg per hour) vs pVAC1.OVA + vehicle, lymph nodes, five days after PMID, Figure one)	number of IL-4 producing cells (IL-4 producing cells)	increase in number of IFN-γ producing cells (IFN-γ producing cells)	number of IFN-γ- or IL-2-producing CD8+ T cells in the spleens (CD8+ T cells; control plasmid (pVAC1) + 1400W vs vehicle)	number of IFN-γ- or IL-2-producing CD8+ T cells in the spleens (CD8+ T cells; pVAC1.OVAcyt + 1400W relative to pVAC1.OVAcyt + vehicle, 12 days after boost, FIG. 4)	selectivity category of iNOS inhibitor (iNOS)
CC(=N)NCc1cccc(CN)c1 [1400W, N-[3-(aminomethyl)benzyl] acetamidine]	No difference	substantial increase	no effect to a modest almost 2 fold increase	2-4 times	No differences	twice	
CC(=N)NCCSCC[C@H](N)C(=O)O [GW274150, S-[2-(1-iminoethylamino)ethyl]-L-homocysteine]							highly selective (compounds of over 50-fold selectivity are regarded as highly selective)
CC(=N)NCCCC[C@H](N)C(=O)O [L-NIL, reference compound]							partially selective (Inhibitors which have a 10-50-fold selectivity are regarded as partially selective inhibitors)
